What was measured:
[1] = tested on: Myotonic Dystrophy 1 affected patient fibroblasts (Coriel GM04602; 1600 CTG repeats); experiment: DM1 foci reduction assay (EC50 assay; CAG10-Cy3 FISH, foci per nucleus); assay type: cell-based; details: Homo sapiens, Fibroblast; DM1 patient fibroblasts, 48 h treatment, foci per nucleus; read-out: DM1 EC50, 48 h
Procedure, shortened: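 GM04602 DM1 patient fibroblasts (1600 CTG repeats) seeded 24 h, then treated 48 h at 37 °C with an 8-point 1:3 dose series from 3 μM. Cells PFA-fixed, ethanol-permeabilized and hybridized overnight with 5 nM CAG10-Cy3 probe, DAPI counterstained. Imaged at 20×, 4 fields per well, as average foci per nucleus.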

F35T cells = experiment: Foci reduction in FECD (CAG10-Cy3 FISH, foci per nucleus); assay type: cell-based; details: F35T cells, 48 h treatment, foci per nucleus; read-out: FECD EC50, 48 h
Procedure, shortened: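 F35T cells, 5000 per well, were treated for 48 h at 37 °C, 5% CO2 in an 8-point dose response. Cells were then fixed in 4% PFA, permeabilized in 70% ethanol and hybridized overnight at 37 °C with a CAG10-Cy3 probe in 30% formamide/2×SSC. After DAPI staining, imaging gave foci per nucleus.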

SMILES	EC50 [1] [nM]	EC50 (F35T cells) [nM]
CC(=O)N1CCC(C#CC#CC2CCN(C(=O)CCNC(=O)c3nc(NC(=O)c4cc(NC(=O)CCNC(=O)c5nc(NC(=O)CCCNC(=O)c6cc(NC(=O)c7nc(NC(=O)CCNC(=O)c8cc(NC(=O)c9nccn9C)cn8C)cn7C)cn6CCOCCN)cn5C)cn4C)cn3C)CC2)CC1 [Compound B-296]	< 100	< 100
Cn1cc(NC(=O)c2nccn2C)cc1C(=O)NCCC(=O)Nc1cn(C)c(C(=O)Nc2cc(C(=O)NCCCC(=O)Nc3cn(C)c(C(=O)NCCC(=O)Nc4cc(C(=O)Nc5cn(C)c(C(=O)NCCC(=O)N6CCC(C#CC#CC7CCNCC7)CC6)n5)n(C)c4)n3)n(CCOCCN)c2)n1 [Compound B-297]	> 1000	100 to 500
CCCNC(=O)CCNC(=O)c1nc(NC(=O)c2cc(NC(=O)CCNC(=O)c3nc(NC(=O)CCCNC(=O)c4cc(NC(=O)c5nc(NC(=O)CCNC(=O)c6cc(NC(=O)c7nccn7C)cn6C)cn5C)cn4CCOCCNC(C)=O)cn3C)cn2C)cn1C [Compound B-298]	100 to 500	100 to 500
CC(=O)NCCOCCn1cc(NC(=O)c2nc(NC(=O)CCNC(=O)c3cc(NC(=O)c4nccn4C)cn3C)cn2C)cc1C(=O)NCCCC(=O)Nc1cn(C)c(C(=O)NCCC(=O)Nc2cc(C(=O)Nc3cn(C)c(C(=O)NCCC(=O)N4CCC(C#CC#CC5CCN(C(C)=O)CC5)CC4)n3)n(C)c2)n1 [Compound B-299]	100 to 500	< 100
CC(=O)NCCOCCn1cc(NC(=O)c2nc(NC(=O)CCNC(=O)c3cc(NC(=O)c4nccn4C)cn3C)cn2C)cc1C(=O)NCCCC(=O)Nc1cn(C)c(C(=O)NCCC(=O)Nc2cc(C(=O)Nc3cn(C)c(C(=O)NCCC(=O)N4CCC(C#CC#CC5CCNCC5)CC4)n3)n(C)c2)n1 [Compound B-300]	< 100	< 100
CCCNC(=O)CCNC(=O)c1nc(NC(=O)c2cc(NC(=O)CCNC(=O)c3nc(NC(=O)CCCNC(=O)c4cc(NC(=O)c5nc(NC(=O)CCNC(=O)c6cc(NC(=O)c7nccn7C)cn6C)cn5C)cn4CCCOCCN)cn3C)cn2C)cn1C [Compound B-301]	100 to 500	< 100
CC(=O)N1CCC(C#CC#CC2CCN(C(=O)CCNC(=O)c3nc(NC(=O)c4cc(NC(=O)CCNC(=O)c5nc(NC(=O)CCCNC(=O)c6cc(NC(=O)c7nc(NC(=O)CCNC(=O)c8cc(NC(=O)c9nccn9C)cn8C)cn7C)cn6CCCOCCN)cn5C)cn4C)cn3C)CC2)CC1 [Compound B-302]	< 100	< 100
Cn1cc(NC(=O)c2nccn2C)cc1C(=O)NCCC(=O)Nc1cn(C)c(C(=O)Nc2cc(C(=O)NCCCC(=O)Nc3cn(C)c(C(=O)NCCC(=O)Nc4cc(C(=O)Nc5cn(C)c(C(=O)NCCC(=O)N6CCC(C#CC#CC7CCNCC7)CC6)n5)n(C)c4)n3)n(CCCOCCN)c2)n1 [Compound B-303]	500 to 1000	100 to 500
CCCNC(=O)CCNC(=O)c1nc(NC(=O)c2cc(NC(=O)CCNC(=O)c3nc(NC(=O)CCCNC(=O)c4cc(NC(=O)c5nc(NC(=O)CCNC(=O)c6cc(NC(=O)c7nccn7C)cn6C)cn5C)cn4CCCOCCNC(C)=O)cn3C)cn2C)cn1C [Compound B-304]	< 100	< 100
CC(=O)NCCOCCCn1cc(NC(=O)c2nc(NC(=O)CCNC(=O)c3cc(NC(=O)c4nccn4C)cn3C)cn2C)cc1C(=O)NCCCC(=O)Nc1cn(C)c(C(=O)NCCC(=O)Nc2cc(C(=O)Nc3cn(C)c(C(=O)NCCC(=O)N4CCC(C#CC#CC5CCN(C(C)=O)CC5)CC4)n3)n(C)c2)n1 [Compound B-305]	100 to 500	< 100
CC(=O)NCCOCCCn1cc(NC(=O)c2nc(NC(=O)CCNC(=O)c3cc(NC(=O)c4nccn4C)cn3C)cn2C)cc1C(=O)NCCCC(=O)Nc1cn(C)c(C(=O)NCCC(=O)Nc2cc(C(=O)Nc3cn(C)c(C(=O)NCCC(=O)N4CCC(C#CC#CC5CCNCC5)CC4)n3)n(C)c2)n1 [Compound B-306]	< 100	< 100
Cn1cc(NC(=O)c2nc(NC(=O)CCNC(=O)c3cc(NC(=O)c4nccn4C)cn3C)cn2C)cc1C(=O)NCCCC(=O)Nc1cn(C)c(C(=O)NCCC(=O)Nc2cc(C(=O)Nc3cn(C)c(C(=O)NCCC(N)=O)n3)n(C)c2)n1 [Compound B-307]	100 to 500	< 100
Cn1cc(NC(=O)c2nc(NC(=O)CCNC(=O)c3cc(NC(=O)c4nccn4C)cn3C)cn2C)cc1C(=O)NCCCC(=O)Nc1cn(C)c(C(=O)NCCC(=O)Nc2cc(C(=O)Nc3cn(C)c(C(N)=O)n3)n(C)c2)n1 [Compound B-308]	100 to 500	< 100
CNC(=O)CCNC(=O)c1nc(NC(=O)c2cc(NC(=O)CCNC(=O)c3nc(NC(=O)CCCNC(=O)c4cc(NC(=O)c5nc(NC(=O)CCNC(=O)c6cc(NC(=O)c7nccn7C)cn6C)cn5C)cn4C)cn3C)cn2C)cn1C [Compound B-309]	500 to 1000	< 100
CNC(=O)c1nc(NC(=O)c2cc(NC(=O)CCNC(=O)c3nc(NC(=O)CCCNC(=O)c4cc(NC(=O)c5nc(NC(=O)CCNC(=O)c6cc(NC(=O)c7nccn7C)cn6C)cn5C)cn4C)cn3C)cn2C)cn1C [Compound B-310]	< 100	< 100
CCNC(=O)CCNC(=O)c1nc(NC(=O)c2cc(NC(=O)CCNC(=O)c3nc(NC(=O)CCCNC(=O)c4cc(NC(=O)c5nc(NC(=O)CCNC(=O)c6cc(NC(=O)c7nccn7C)cn6C)cn5C)cn4C)cn3C)cn2C)cn1C [Compound B-311]	100 to 500	< 100
CCNC(=O)c1nc(NC(=O)c2cc(NC(=O)CCNC(=O)c3nc(NC(=O)CCCNC(=O)c4cc(NC(=O)c5nc(NC(=O)CCNC(=O)c6cc(NC(=O)c7nccn7C)cn6C)cn5C)cn4C)cn3C)cn2C)cn1C [Compound B-312]	< 100	< 100
CN(C)C(=O)CCNC(=O)c1nc(NC(=O)c2cc(NC(=O)CCNC(=O)c3nc(NC(=O)CCCNC(=O)c4cc(NC(=O)c5nc(NC(=O)CCNC(=O)c6cc(NC(=O)c7nccn7C)cn6C)cn5C)cn4C)cn3C)cn2C)cn1C [Compound B-313]	< 100	< 100
CCCNC(=O)CCNC(=O)c1nc(NC(=O)c2cc(NC(=O)CCNC(=O)c3nc(NC(=O)CCNC(=O)c4cc(NC(=O)c5nc(NC(=O)CCNC(=O)c6cc(NC(=O)c7nccn7C)cn6C)cn5C)cn4C)cn3C)cn2C)cn1C [Compound B-315]	> 1000	> 1000
CCCNC(=O)CCNC(=O)c1nc(NC(=O)c2cc(NC(=O)CCNC(=O)c3nc(NC(=O)CCCNC(=O)c4cc(NC(=O)c5nc(NC(=O)CCNC(=O)c6cc(NC(=O)c7nccn7C)cn6C)cn5C)cn4CC)cn3C)cn2C)cn1C [Compound B-318]	100 to 500	< 100
CCCNC(=O)CCNC(=O)c1nc(NC(=O)c2cc(NC(=O)CCNC(=O)c3nc(NC(=O)CCCNC(=O)c4cc(NC(=O)c5nc(NC(=O)CCNC(=O)c6cc(NC(=O)c7nccn7C)cn6C)cn5C)cn4C(C)C)cn3C)cn2C)cn1C [Compound B-319]	100 to 500	< 100
CCCNC(=O)CCNC(=O)c1nc(NC(=O)c2cc(NC(=O)CCNC(=O)c3nc(NC(=O)CCCNC(=O)c4cc(NC(=O)c5nc(NC(=O)CCNC(=O)c6cc(NC(=O)c7nccn7C)cn6C)cn5C)cn4CCC)cn3C)cn2C)cn1C [Compound B-320]	< 100	< 100
CCCCn1cc(NC(=O)c2nc(NC(=O)CCNC(=O)c3cc(NC(=O)c4nccn4C)cn3C)cn2C)cc1C(=O)NCCCC(=O)Nc1cn(C)c(C(=O)NCCC(=O)Nc2cc(C(=O)Nc3cn(C)c(C(=O)NCCC(=O)NCCC)n3)n(C)c2)n1 [Compound B-321]	< 100	< 100
CCCCCn1cc(NC(=O)c2nc(NC(=O)CCNC(=O)c3cc(NC(=O)c4nccn4C)cn3C)cn2C)cc1C(=O)NCCCC(=O)Nc1cn(C)c(C(=O)NCCC(=O)Nc2cc(C(=O)Nc3cn(C)c(C(=O)NCCC(=O)NCCC)n3)n(C)c2)n1 [Compound B-322]	< 100	100 to 500
CCCCCCn1cc(NC(=O)c2nc(NC(=O)CCNC(=O)c3cc(NC(=O)c4nccn4C)cn3C)cn2C)cc1C(=O)NCCCC(=O)Nc1cn(C)c(C(=O)NCCC(=O)Nc2cc(C(=O)Nc3cn(C)c(C(=O)NCCC(=O)NCCC)n3)n(C)c2)n1 [Compound B-323]	< 100	< 100
CCCNC(=O)CCNC(=O)c1nc(NC(=O)c2cc(NC(=O)CCNC(=O)c3nc(NC(=O)CCCNC(=O)c4cc(NC(=O)c5nc(NC(=O)CCNC(=O)c6cc(NC(=O)c7nc(NC=O)cn7C)cn6C)cn5C)cn4C)cn3C)cn2C)cn1C [Compound B-324]	100 to 500	< 100
CCCNC(=O)CCNC(=O)c1nc(NC(=O)c2cc(NC(=O)CCNC(=O)c3nc(NC(=O)CCCNC(=O)c4cc(NC(=O)c5nc(NC(=O)CCNC(=O)c6cc(NC(=O)c7nc(N=C(N)N)cn7C)cn6C)cn5C)cn4C)cn3C)cn2C)cn1C [Compound B-325]	500 to 1000	> 1000
CCCNC(=O)CCNC(=O)c1nc(NC(=O)c2cc(NC(=O)CCNC(=O)c3nc(NC(=O)CCCNC(=O)c4cc(NC(=O)c5nc(NC(=O)CCNC(=O)c6cc(NC(=O)c7nc(N=C(N(C)C)N(C)C)cn7C)cn6C)cn5C)cn4C)cn3C)cn2C)cn1C [Compound B-326]	100 to 500	> 1000
CCCNC(=O)c1nc(NC(=O)c2cc(NC(=O)CCNC(=O)c3nc(NC(=O)CCCNC(=O)c4cc(NC(=O)c5nc(NC(=O)CCNC(=O)c6cc(NC(=O)c7nc(NC=O)cn7C)cn6C)cn5C)cn4C)cn3C)cn2C)cn1C [Compound B-327]	< 100	< 100
CCCNC(=O)c1nc(NC(=O)c2cc(NC(=O)CCNC(=O)c3nc(NC(=O)CCCNC(=O)c4cc(NC(=O)c5nc(NC(=O)CCNC(=O)c6cc(NC(=O)c7nc(N=C(N)N)cn7C)cn6C)cn5C)cn4C)cn3C)cn2C)cn1C [Compound B-328]	100 to 500	100 to 500
